Experiment [1] has as its target T1, mouse TLR4 (Mus musculus, UniProt Q9JHF9+Q9QUK6).
T1 construct: host or cells: HEK-Blue mTLR4 cell line
T1 sequence (Q9QUK6 26-835): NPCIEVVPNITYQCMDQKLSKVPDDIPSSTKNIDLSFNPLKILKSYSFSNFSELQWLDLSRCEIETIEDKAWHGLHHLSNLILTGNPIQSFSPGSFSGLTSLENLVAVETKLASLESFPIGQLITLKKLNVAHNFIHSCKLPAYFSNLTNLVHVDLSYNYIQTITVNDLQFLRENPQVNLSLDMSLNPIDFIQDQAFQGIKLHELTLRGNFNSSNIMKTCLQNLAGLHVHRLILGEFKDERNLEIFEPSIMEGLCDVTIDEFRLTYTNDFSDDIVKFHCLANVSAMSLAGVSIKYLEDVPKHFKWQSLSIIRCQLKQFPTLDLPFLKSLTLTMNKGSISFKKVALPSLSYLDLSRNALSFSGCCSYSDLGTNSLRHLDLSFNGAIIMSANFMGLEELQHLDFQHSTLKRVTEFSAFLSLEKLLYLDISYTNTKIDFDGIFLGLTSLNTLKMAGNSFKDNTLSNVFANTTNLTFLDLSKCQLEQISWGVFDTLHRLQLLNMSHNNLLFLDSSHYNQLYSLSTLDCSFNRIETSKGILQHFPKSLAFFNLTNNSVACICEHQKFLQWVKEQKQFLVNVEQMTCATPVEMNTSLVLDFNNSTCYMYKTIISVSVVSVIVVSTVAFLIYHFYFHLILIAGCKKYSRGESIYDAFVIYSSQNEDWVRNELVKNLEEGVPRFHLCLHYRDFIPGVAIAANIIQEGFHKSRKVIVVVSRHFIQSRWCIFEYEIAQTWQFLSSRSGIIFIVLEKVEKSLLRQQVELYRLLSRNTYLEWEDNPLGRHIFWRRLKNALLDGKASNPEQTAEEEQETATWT
T1 sequence (Q9JHF9 19-160): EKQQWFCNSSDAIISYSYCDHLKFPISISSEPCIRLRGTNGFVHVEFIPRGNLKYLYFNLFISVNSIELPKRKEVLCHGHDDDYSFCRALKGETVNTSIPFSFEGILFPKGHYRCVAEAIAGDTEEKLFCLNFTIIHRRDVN
The experiment is described as follows: Mouse TLR4 reporter gene assay (Test 2). It is filed as cell-based. Particulars: HEK-Blue mTLR4 cell line, SEAP reporter, 37° C. 16-20 hours, 0.1% DMSO; concentration giving half of maximal SEAP level induced with LPS. The source says:
Mouse TLR4 Reporter Gene Assay
HEK-Blue™ mTLR4 cell line (Invivogen) is a stably co-transfected cell line which expresses mouse TLR4, MD2, CD14 and secretory SEAP reporter gene under the transcriptional regulation of an NF-κB response element. The TLR4 expression of the cell line has been already tested by RT-PCR, flow cytometry. Transfectants with stable expression were selected using the antibiotic HEK-Blue™ Selection. TLR signaling leads to the translocation of NF-κB and the activation of the promoter results in expression of the SEAP gene. TLR4-specific activation was assessed by determining the level of SEAP produced following incubation of the cells at 37° C. for 16-20 hours with each compound prepared in Examples and Reference examples in the presence of 0.1% (v/v) DMSO. The mouse TLR4 activity for the present compound was assessed by mouse TLR4 reporter gene assay, and the concentration of the compound concentration which produced half of the maximal level of SEAP induced with LPS was determined as EC50.

Experiment [2] relates to OVA-specific IgG2c. Put plainly: Test 3: OVA-specific IgG2c in serum of immunized mice by ELISA. It is filed as in vivo, C57BL/6 male mouse. As to conditions: mouse, intramuscular with OVA, liposome formulation, 10 or 100 μg/mouse, two immunizations, serum one week after the additional immunization; compared with the negative control group. As for the experimental part: FIG. 1 is a graph showing the results of measuring OVA-specific IgG2c in immunized mouse serum in mice to which the formulation prepared in Example 6 or 7 was intramuscularly administered, by ELISA in Test 3. The vertical axis indicates the antibody titer of OVA-specific IgG2c in serum. The horizontal axis indicates the administered sample (administered dose in parentheses). 1: negative control group (phosphate buffered saline), 2: Example 6 administration group (the compound of Example 1, 10 μg/mouse), 3: Example 6 administration group (the compound of Example 1, 100 μg/mouse), 4: Example 7 administration group (the compound of Example 2, 10 μg/mouse), 5: Example 7 administration group (the compound of Example 2, 100 μg/mouse).
FIG. 2 is a graph showing the results of measuring OVA-specific IgG2c in immunized mouse serum in mice to which the formulation prepared in Reference Example 16 or Example 6 was intramuscularly administered, by ELISA in Test 3. The vertical axis indicates the antibody titer of OVA-specific IgG2c in serum. The horizontal axis indicates the administered sample (administered dose in parentheses). […]
An equal mixture of ovalbumin (OVA) (2 mg/mL) as an antigen and the formulation prepared in Example 6, Example 7, or Reference example 16 (containing 0.2 or 2 mg/mL the compound of Example 1, Example 2, or Reference example 9) was intramuscularly administered to the gastrocnemius of a 7-week-old C57BL/6 male mouse (100 μL/mouse), which was defined as the first immunization. […] The OVA-specific IgG2c value in each serum was measured by the following ELISA method. To 96-well plate, OVA solution (SIGMA) was added, 1% Skim Milk (Wako) was added for blocking, the serum sample which was diluted with phosphate buffer solution was added, caprine antimouse IgG2c (Southern Bio) as the secondary antibody was added, SureBlue™ TMB Micrewell Peroxidase Substrate (KPL) was added, and then the product of the enzymatic reaction was quantified with a microplate reader.

pEC50: −log10 of the molar value.

In the case of `CCCCCCCCCCC[C@H](CC(=O)NC1C(OC[C@@H](NC(=O)C[C@@H](CCCCCCCCCCC)OC(=O)CCCCCCCCC)C(=O)O)OC(CO)C(OP(=O)(O)O)C1OC(=O)C[C@@H](CCCCCCCCCCC)OC(=O)CCCCCCCCc1ccccc1)OC(=O)CCCCCCCCC` (stereo partly drawn) [Reference example 9, (2R)-2-{[(3R)-3-(Decanoyloxy)tetradecanoyl]amino}-3-{[3-{[(3R)-3-(decanoyloxy)tetradecanoyl]amino}-6-(hydroxymethyl)-4-({(3R)-3-[(9-phenylnonanoyl)oxy]tetradecanoyl}oxy)-5-(phosphonooxy)oxan-2-yl]oxy}propanoic acid, reference compound], the negative-log EC50 (pEC50) in experiment [1] was 7.55. Further, the “OVA-specific IgG2c induction” value in experiment [2] is “significantly strong”.
Turning to `CCCCCCCCCCC[C@H](CC(=O)NC1C(OC[C@H](NC(=O)C[C@@H](CCCCCCCCCCC)OC(=O)CCCCCCCCC)C(=O)O)OC(CO)C(O)C1OC(=O)C[C@@H](CCCCCCCCCCC)OC(=O)CCCCCCCCc1ccccc1)OC(=O)CCCCCCCCC` (stereo partly drawn) [Example 2, (2S)-2-{[(3R)-3-(decanoyloxy)tetradecanoyl]amino}-3-{[3-{[(3R)-3-(decanoyloxy)tetradecanoyl]amino}-5-hydroxy-6-(hydroxymethyl)-4-({(3R)-3-[(9-phenylnonanoyl)oxy]tetradecanoyl}oxy)oxan-2-yl]oxy}propanoic acid], the pEC50 in experiment [1] was 7.85. In addition, the “OVA-specific IgG2c induction” value in experiment [2] is on record as “significantly strong”.
Regarding `CCCCCCCCCCC[C@H](CC(=O)NC1C(OC[C@@H](NC(=O)C[C@@H](CCCCCCCCCCC)OC(=O)CCCCCCCCC)C(=O)O)OC(CO)C(O)C1OC(=O)C[C@@H](CCCCCCCCCCC)OC(=O)CCCCCCCCc1ccccc1)OC(=O)CCCCCCCCC` (stereo partly drawn) [Example 1, (2R)-2-{[(3R)-3-(Decanoyloxy)tetradecanoyl]amino}-3-{[3-{[(3R)-3-(decanoyloxy)tetradecanoyl]amino}-5-hydroxy-6-(hydroxymethyl)-4-({(3R)-3-[(9-phenylnonanoyl)oxy]tetradecanoyl}oxy)oxan-2-yl]oxy}propanoic acid], the negative logarithm of the EC50 (pEC50) in experiment [1] is 7.85. For the same compound, in experiment [2], the “OVA-specific IgG2c induction” value is given as “significantly strong”.

The values above are taken from US20230287027A1, “ADJUVANT WITH TLR4 AGONIST ACTIVITY” (Sumitomo Pharma Co., Ltd, priority 2020, published 2023).
